Patent publication US20140051714A1, “Modulators Of The GPR119 Receptor And The Treatment Of Disorders Related Thereto” (ARENA PHARMACEUTICALS, INC., priority 2011, published 2014)

Assays:
Male 129SVE mice [1] = experiment: Oral glucose tolerance test (oGTT) in male 129SVE mice; format: in vivo; conditions: for Plasma Glucose, Mean: n=6
Experimental: Male 129SVE mice (approximately 8 weeks old) were fasted for 18 h and randomly grouped (n=6) to receive a GPR119 agonist (Compound 1) at 3, 10, or 30 mg/kg body weight. The compound was delivered orally via a gavage needle (4 mL/kg) 30 min prior to glucose bolus (3 g/kg) (time=−30 min in FIG. 1), with a separate control group receiving vehicle (20% hydroxypropyl-beta-cyclodextrin (HPCD). At time 0 min, the glucose bolus was administered. Levels of blood glucose were assessed using a glucometer (One-Touch Ultra™, LifeScan) at time −30 min (prior to compound administration), at 0 min (at time when glucose bolus was given), and at 20, 40, 60, 120 min post glucose bolus. The plasma glucose level (Table A) and glucose excursion curve (FIG. 1) are shown. Glucose excursion reduction (area under the curve (AUC)) in compound treated animals relative to vehicle control is given in FIG. 2.

GPR119 receptor = target: T1, GPR119 receptor (Homo sapiens, UniProt Q8TDV5); experiment: HTRF cAMP detection assay in CHO-K1 cells stably expressing the GPR119 receptor; format: cell-based
T1 construct: expressed in transfected cells
T1 sequence (Q8TDV5 2-335): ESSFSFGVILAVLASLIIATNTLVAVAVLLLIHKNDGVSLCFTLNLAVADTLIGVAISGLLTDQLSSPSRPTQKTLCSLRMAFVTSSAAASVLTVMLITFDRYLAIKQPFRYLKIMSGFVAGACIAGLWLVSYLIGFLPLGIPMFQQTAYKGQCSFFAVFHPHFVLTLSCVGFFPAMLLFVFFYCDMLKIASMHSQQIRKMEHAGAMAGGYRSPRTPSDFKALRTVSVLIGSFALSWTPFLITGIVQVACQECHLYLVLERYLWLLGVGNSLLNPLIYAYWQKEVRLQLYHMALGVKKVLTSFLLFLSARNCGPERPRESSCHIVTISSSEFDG
Experimental: GPR119 agonist, Compound 1, was evaluated in an HTRF® cAMP detection assay (Cisbio, cAMP Dynamic 2 Assay Kit; #62AM4PEJ) according to the manufacturer's instructions using CHO-K1 cells stably expressing the GPR119 receptor. CHO-K1 cells were transduced with a lentiviral vector encoding the nucleotide sequence of GPR119 (NCBI mRNA and protein reference sequences: NM_178471.2 & NP_848566). The N-terminus of the GPR119 nucleotide sequence was modified to replace the first, methionine-coding, codon with a nucleotide sequence coding for a standard, nine amino acid, hemagglutinin tag. Following transduction, cells expressing the GPR119 receptor were isolated and a single clone was isolated following standard dilution-cloning procedures. On the day of the assay, cultured CHO-GPR119 cells were harvested, suspended in assay buffer and plated into 384-well assay plates (PerkinElmer® Proxiplate® #6008280) at a density of 2,000 cells per well. A cAMP standard curve was added to each plate. Compound 1 was dissolved in DMSO, serially diluted in DMSO and then diluted in assay buffer before addition to the cells. Compound 1 was evaluated in triplicate, using 10-point, 5-fold serial dilutions starting at 10 μM. […] Plates were then incubated at room temperature for 1 h prior to reading. Time-resolved fluorescence measurements were collected on PerkinElmer Envision™ or BMG Pherastar™ microplate readers. […]

Male 129SVE mice [2] = experiment: GIP release in male 129SVE mice (plasma total GIP, ELISA); format: in vivo; conditions: 3 or 30 mg/kg p.o.; blood sample after 45 min
Experimental: Male 129SVE mice (approximately 8 weeks old) were fasted for 18 h and randomly grouped (n=6) to receive a GPR119 agonist (Compound 1) at 3 or 30 mg/kg body weight. Compound 1 was delivered orally via a gavage needle (4 mL/kg), and after 45 min a blood sample was collected to determine plasma total GIP levels. A separate control group received vehicle (PET (80% PEG: 10% Ethanol: 10% Tween80™)). Plasma GIP levels were determined using a GIP (total) ELISA kit from Millipore.

Male SD rats = experiment: Gastric emptying in male SD rats (stomach content 6 h post-dosing); format: in vivo; conditions: 3, 10, or 30 mg/kg orally
Experimental: Male SD rats were fasted for 18 h and randomly grouped (n=5). Fasted rats were allowed to access food for 30 min, and the amount of food consumed was recorded for each rat. At the end of the 30 min food intake, rats were put in cages without food and water, and dosed with Compound 1 at 3, 10, or 30 mg/kg, or vehicle control (20% HPCD) orally, or with exendin-4 (Ex-4) at 100 μg/kg i.p. Six hours post-dosing, rats were euthanized with CO2, and stomach content was determined.

Male ZDF rats = experiment: Oral glucose tolerance test (oGTT) in male ZDF rats; format: in vivo; conditions: for % Inhibition of Glucose Excursion: 60 min prior to glucose bolus (3 g/kg), AUC relative to vehicle control
Experimental: Male ZDF rats were fasted for 18 h and randomly grouped (n=6) to receive the GPR119 agonist Compound 1 at 3, 10, or 30 mg/kg, the control compound Januvia (3 mg/kg), or a combination of Compound 1 (3 mg/kg) and Januvia (3 mg/kg). The compounds were delivered orally via a gavage needle (p.o., volume 4 mL/kg) 60 min prior to glucose bolus (3 g/kg) (time=−60 min in FIG. 4), with a separate group receiving vehicle (20% hydroxypropyl-beta-cyclodextrin (HPCD)) as control. At time 0 min. a glucose bolus was administered. Levels of blood glucose were assessed using a glucometer (One-Touch Ultra™, LifeScan) at time −60 min (prior to compound administration), at 0 min (at time when glucose bolus was given), and at 30, 60, 90, and 120 min post glucose bolus. The plasma glucose excursion curve (FIG. 4) is shown.

With `CCc1cnc(N2CCC(Oc3ncnc(Oc4ccc(S(C)(=O)=O)nc4C)c3F)CC2)nc1` [Compound 1, 4-(1-(5-ethylpyrimidin-2-yl)piperidin-4-yloxy)-5-fluoro-6-(2-methyl-6-(methylsulfonyl)pyridin-3-yloxy)pyrimidine] the “Plasma Glucose, Mean” value (Male 129SVE mice [1]; 3 mg/kg p.o., 20 min post glucose bolus) was 282.8333 mg/dL, the “Plasma Glucose, Mean” value (Male 129SVE mice [1]; 3 mg/kg p.o., 40 min post glucose bolus) was 301.6667 mg/dL and the “Plasma Glucose, Mean” value (Male 129SVE mice [1]; 3 mg/kg p.o., 60 min post glucose bolus) was 270.6667 mg/dL. For the same compound, the “Plasma Glucose, Mean” value (Male 129SVE mice [1]; 3 mg/kg p.o., 120 min post glucose bolus) was 151.3333 mg/dL, the “Plasma Glucose, Mean” value (Male 129SVE mice [1]; 3 mg/kg p.o., time 0 min relative to glucose bolus (3 g/kg)) was 83.83 mg/dL and the “Plasma Glucose, Mean” value (Male 129SVE mice [1]; 3 mg/kg p.o., time −30 min relative to glucose bolus (prior to compound administration)) was 75 mg/dL. The “Plasma Glucose, Mean” value (Male 129SVE mice [1]; 10 mg/kg p.o., 20 min post glucose bolus) was 254.3333 mg/dL, the “Plasma Glucose, Mean” value (Male 129SVE mice [1]; 10 mg/kg p.o., 40 min post glucose bolus) was 276.8333 mg/dL and the “Plasma Glucose, Mean” value (Male 129SVE mice [1]; 10 mg/kg p.o., 60 min post glucose bolus) was 197.8333 mg/dL. For the same compound, the “Plasma Glucose, Mean” value (Male 129SVE mice [1]; 10 mg/kg p.o., 120 min post glucose bolus) was 134 mg/dL, the “Plasma Glucose, Mean” value (Male 129SVE mice [1]; 10 mg/kg p.o., time 0 min relative to glucose bolus (3 g/kg)) was 95.67 mg/dL and the “Plasma Glucose, Mean” value (Male 129SVE mice [1]; 10 mg/kg p.o., time −30 min relative to glucose bolus (prior to compound administration)) was 75.67 mg/dL. For the same compound, the “Effect on blood glucose after challenge with glucose” value (Male 129SVE mice [1]; 3, 10, or 30 mg/kg p.o., 30 min prior to glucose bolus (3 g/kg)) was “lowered blood glucose”, the “Effect on plasma glucose levels in oGTT” value (Male 129SVE mice [1]; dose of 10 mg/kg) was “significantly reduced plasma glucose levels” and the “Agonist character at GPR119 (HTRF assay)” value (GPR119 receptor) was “full agonist”. The “Effect on GIP release (plasma total GIP)” value (Male 129SVE mice [2]) was “stimulates the release of GIP”, the “Effect on gastric emptying” value (Male SD rats) was “no significant effect on gastric emptying” and the “% Inhibition of Glucose Excursion” value (Male ZDF rats; 3 mg/kg p.o.) was 19.1%. For the same compound, the “% Inhibition of Glucose Excursion” value (Male ZDF rats; 10 mg/kg p.o.) was 30.2%, the “% Inhibition of Glucose Excursion” value (Male ZDF rats; 30 mg/kg p.o.) was 60.7% and the “Effect on blood glucose after a challenge with glucose” value (Male ZDF rats; diabetic ZDF rats, 3, 10, or 30 mg/kg p.o.) was “lowered blood glucose”.
For `N[C@@H](CC(=O)N1CCn2c(nnc2C(F)(F)F)C1)Cc1cc(F)c(F)cc1F` [Januvia, 3(R)-amino-1-[3-(trifluoromethyl)-5,6,7,8-tetrahydro[1,2,4]triazolo[4,3-a]pyrazin-7-yl]-4-(2,4,5-trifluorophenyl)butan-1-one phosphate, reference compound], the “% Inhibition of Glucose Excursion” value (Male ZDF rats; 3 mg/kg p.o.) was 54.2%.
